We go through 35 molecules from US20110144064A1, “Inhibitors of Kynurenine Aminotransferase and Uses Therefor” (priority 2005, published 2011).

Values joined by “and” are separate entries in the source; they are usually repeats but may differ in a detail not shown here. Equal entries are not always repeated.

T1 sequence (Q64602 30-425): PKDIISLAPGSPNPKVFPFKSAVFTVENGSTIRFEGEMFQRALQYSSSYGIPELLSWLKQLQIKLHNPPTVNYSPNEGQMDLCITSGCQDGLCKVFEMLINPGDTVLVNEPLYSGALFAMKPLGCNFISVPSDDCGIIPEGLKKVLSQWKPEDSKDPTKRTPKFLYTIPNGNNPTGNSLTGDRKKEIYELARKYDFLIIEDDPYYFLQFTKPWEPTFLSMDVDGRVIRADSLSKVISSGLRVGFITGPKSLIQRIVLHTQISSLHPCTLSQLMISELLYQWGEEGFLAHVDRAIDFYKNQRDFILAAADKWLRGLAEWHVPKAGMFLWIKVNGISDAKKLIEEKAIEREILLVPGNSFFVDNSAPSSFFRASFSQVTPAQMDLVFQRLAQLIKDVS

The first experiment addresses T1, rat liver partially purified KAT II (Rattus norvegicus, UniProt Q64602).
T1 construct: rat liver partially purified KAT II; from tissue; host or cells: rat liver
In words: Inhibition of kynurenine aminotransferase II activity ([3H]-kynurenine to [3H]-kynurenic acid). It counts as biochemical. Particulars: IC50 kynurenine aminotransferase II. The method, then:
Compounds were tested as inhibitors of kynurenine aminotransferase II and the IC50 values determined. For the determination of the KAT II activity, 80 μl of rat liver partially purified KAT II was incubated (2 hrs at 37° C. with 100 μl of 150 mM Tris-acetate (pH 7.4), 2 μM kynurenine, (2.5 nCi) [^3H]-kynurenine 1 mM pyruvate and 70 μM pyridoxal-5′-phosphate. Add 20 μl of the inhibitor solution (10×). The reaction was terminated by the addition of 14 μl of 50% trichloroacetic acid and 1 ml of 0.1 N hydrochloric acid. The denaturated protein was removed by centrifugation and 1 ml of the supernatant was applied to a Dowex 50 W H^+ cation exchange column which was then washed with 1 ml of 0.1 N hydrochloric acid followed by 1 ml of ultrapure water. [^3H]-Kynurenic acid formed was subsequently eluted with 2×1 ml of ultrapure water and radioactivity was quantified by liquid scintillation spectrometry.
All compounds are in the racemic form, when applicable, unless indicated otherwise. Other untested compounds are commercially available or easily synthesized using standard synthetic methods. Data are presented as IC50 values in μM for all tested compounds. Blanks are untested compounds.
The term IC50 denotes the midpoint of a concentration-inhibition curve. `NC(CCCCCC(=O)O)C(=O)O` (racemic) [n=5, R^1 = NH^2, DL-2-amino-1,8-octanedioic acid] showed an IC50 of 272 µM.

The same experiment, now with this note: IC50 kynurenine aminotransferase II, rat liver partially purified KAT II, 2 hrs at 37° C., pH 7.4, 2 μM kynurenine, 1 mM pyruvate.
As to `NC(CCC(=O)O)C(=O)O` (racemic) [n=2, R^1 = NH^2, DL-2-amino-1,5-pentanedioic acid], inhibition was half-maximal at 2250 µM (IC50).

For the molecule `NC(CCP(=O)(O)O)C(=O)O` (racemic) [n=2, X = PO3H2 (DL), DL-2-amino-4-phosphonobutyric acid], the IC50 was determined as 505 µM.

As for `NC(CCCCCP(=O)(O)O)C(=O)O` (stereo not drawn) [n=5, X = PO3H2 (DL), 2-amino-7-phosphonoheptanoic acid], inhibition was half-maximal at 1460 µM (IC50).

The experiment is the same for the next values; noted with them: rat liver partially purified KAT II, 2 hrs at 37° C., pH 7.4, 2 μM kynurenine, 1 mM pyruvate.
As for `O=C(O)CC(=O)O` [n=0, R^1 = H], the “IC50 kynurenine aminotransferase II” value was “inactive”.

As for `O=C(O)CCCCCCC(=O)O` [n=5, R^1 = H], the “IC50 kynurenine aminotransferase II” value is “inactive”.

With `O=C(O)CCC(=O)O` [n=1, R^1 = H], the “IC50 kynurenine aminotransferase II” value was “inactive”.

Regarding `O=C(O)CCCC(=O)O` [n=2, R^1 = H], the “IC50 kynurenine aminotransferase II” value is “inactive”.

The same experiment, now with this note: rat liver partially purified KAT II, 2 hrs at 37° C., pH 7.4, 2 μM kynurenine, 1 mM pyruvate; read-out: IC50 kynurenine aminotransferase II.
As for `O=C(O)CCCCCCCCCCCC(=O)O` [n=10, R^1 = H, 1,13-tridecanedioic acid], the IC50 turned out to be 170 µM.

Take `O=C(O)CCCCCC(=O)O` [n=4, R^1 = H, 1,7-heptanedioic acid]: the IC50 stood at 6370 µM.

On to `NC(CC(=O)O)C(=O)O` (racemic) [n=1, R^1 = NH^2, DL-2-amino-1,4-butanedioic acid], for which the concentration for half-maximal inhibition (IC50) was 2460 µM.

On to `O=C(O)CCCCCCCCCCCCC(=O)O` [n=11, R^1 = H, 1,14-tetradecanedioic acid], for which the IC50 was found to be 102 µM.

Turning to `O=C(O)CCCCCCCCCCCCCCC(=O)O` [n=13, R^1 = H, 1,16-hexadecanedioic acid], the IC50 was determined as 60 µM.

For the molecule `O=C(O)CCCCCCCCCC(=O)O` [n=8, R^1 = H, 1,11-undecanedioic acid], the IC50 was 234 µM.

With `NC(CCCCCCCCC(=O)O)C(=O)O` (racemic) [n=8, R^1 = NH^2, DL-2-amino-1,11-undecanedioic acid], the IC50 turned out to be 7 µM.

On to `NC(CCS(=O)(=O)O)C(=O)O` (centres unmarked) [n=2, X = SO3H (L), 2-amino-4-sulfobutyric acid], for which the IC50 came to 63 µM.

In the case of `CC(N)(CCCCCCCCCCCCCC(=O)O)C(=O)O` (racemic) [DL-2-amino-2-methyl-1,16-hexadecanedioic acid], the IC50 is 53.7 µM.

With `O=C(O)CCCCCCCC(=O)O` [n=6, R^1 = H, 1,9-nonanedioic acid], the IC50 turned out to be 4580 µM.

As to `NC(CCCCCCCCCCCCCCC(=O)O)C(=O)O` (racemic) [n=14, R^1 = NH^2, DL-2-amino-1,17-heptadecanedioic acid], the IC50 was found to be 85 µM.

Take `O=C(O)CCCCCCCCCCC(=O)O` [n=9, R^1 = H, 1,12-dodecanedioic acid]: the IC50 stood at 256 µM.

For `NC(CCCCCCCCCCC(=O)O)C(=O)O` (racemic) [n=10, R^1 = NH^2, DL-2-amino-1,13-tridecanedioic acid], the IC50 is 7 µM.

Regarding `NC(CS(=O)(=O)O)C(=O)O` (centres unmarked) [n=1, X = SO3H (L), 2-amino-3-sulfopropionic acid], the IC50 turned out to be 739 µM.

On to `NC(CCCP(=O)(O)O)C(=O)O` (racemic) [n=3, X = PO3H2 (DL), DL-2-amino-5-phosphonopentanoic acid], for which the IC50 was found to be 1000 µM.

As to `NC(CCCCCCCCCC(=O)O)C(=O)O` (racemic) [n=9, R^1 = NH^2, DL-2-amino-1,12-dodecandioic acid], the IC50 was 8 µM.

On to `O=C(O)CCCCC(=O)O` [n=3, R^1 = H, 1,6-hexanedioic acid], for which the IC50 came out at 1290 µM.

`O=C(O)CCCCCCCCCCCCCC(=O)O` [n=12, R^1 = H, 1,15-pentadecanedioic acid]: the IC50 worked out at 71 µM.

For the molecule `NC(CCCCCCCCCCCCCC(=O)O)C(=O)O` (racemic) [n=13, R^1 = NH^2, DL-2-amino-1,16-hexadecanedioic acid], the IC50 is 6 µM and 6.4 µM.

Take `O=C(O)CCCCCCCCC(=O)O` [n=7, R^1 = H, 1,10-decanedioic acid]: the IC50 came out at 720 µM.

Consider `NC(CCCCCCC(=O)O)C(=O)O` (racemic) [n=6, R^1 = NH^2, DL-2-amino-1,9-nonanedioic acid], for which the IC50 came to 355 µM.

As to `NC(CCCC(=O)O)C(=O)O` (racemic) [n=3, R^1 = NH^2, DL-2-amino-1,6-hexanedioic acid], the 50% inhibitory concentration (IC50) is 18 µM.

For `N[C@@H](CCS(=O)O)C(=O)O` [n=2, X = S02H (L), homocysteinesulfinic acid], the IC50 was 224 µM.

Consider `CNC(CCCCCCCCCCCCCC(=O)O)C(=O)O` (racemic) [DL-2-methylamino-1,16-hexadecanedioic acid], for which the IC50 was determined as 29.3 µM.

Regarding `NC(CCCCC(=O)O)C(=O)O` (racemic) [n=4, R^1 = NH^2, DL-2-amino-1,7-heptanedioic acid], the IC50 was found to be 14 µM.

For the molecule `N[C@@H](CS(=O)O)C(=O)O` [n=1, X = S02H (L), cysteinesulfinic acid], the IC50 was determined as 1150 µM.

Consider `O=C(O)CCCCCCCCCCCCCCCO` [n = 13, R1, R2 = H, X = CH2OH, 16-hydroxyhexadecanoic acid], for which the IC50 was found to be 149 µM.
